Reference: patent US20100197643A1, “PHYTOCHEMICAL-RICH OILS AND METHODS RELATED THERETO” (priority 2007, published 2010)

Tests used:
[1] = Phenolic storage stability of açai oil, 10 weeks at 20, 30, 40° C.; format: physicochemical; settings: for change in concentration after storage: 10 weeks at 20 or 30 ° C.
Caco-2 cell monolayers = test: Transepithelial transport model, apical to basolateral; format: in vitro ADME; settings: 2 hours, 37° C., not affected by initial polyphenolic concentration
caspase-3 = test: Caspase-3 activation in HL-60 cells; format: cell-based, human; settings: optimal time (2, 3, 4 hours tested), highest concentration

With `O=C(O)c1ccc(O)c(O)c1` [protocatechuic acid, 3,4-dihydroxybenzoic acid] as the compound, how does the “change in concentration after storage” value [1] read?
The value was “no significant changes”.

Which results are given for `O=C(O)c1ccc(O)cc1` [p-hydroxybenzoic acid]?
change in concentration after storage [1]: no significant changes; transport efficiency (percentage of initial apical concentration detected on basolateral side) (Caco-2 cell monolayers; from açai pulp extracts): approximately 2.0%

For `COc1cc(C(=O)O)cc(OC)c1O` [syringic acid], which “change in concentration after storage” value [1] is on record?
The value was “no significant changes”.

What about the “transport efficiency (percentage of initial apical concentration detected on basolateral side)” value (Caco-2 cell monolayers; from açai pulp extracts) of the same compound?
The value was “approximately 0.6%”.

For `COc1cc(/C=C/C(=O)O)ccc1O` [ferulic acid], which “decrease in concentration after storage” value ([1]; 10 weeks at 20° C.) is on record?
The value was 9.3%.

What about the “decrease in concentration after storage” value ([1]; 10 weeks at 30° C.) of the same compound?
The value was 20.3%.

What about the “decrease / change in concentration after storage” value ([1]; 10 weeks at 40° C.) of the same compound?
Its value is 33.1%.

What about the “transport efficiency (percentage of initial apical concentration detected on basolateral side)” value (Caco-2 cell monolayers; from açai oil extracts) of the same compound?
The value was “approximately 0.1%”.

Which “caspase-3 activation (maximal)” value (caspase-3) does the source give for `CC[C@@]1(O)C(=O)OCc2c1cc1n(c2=O)Cc2cc3ccccc3nc2-1` [camptotechin] here?
The value was 7 fold.

For `Oc1cc(O)c2c(c1)O[C@H](c1ccc(O)c(O)c1)[C@@H](O)C2` [(+)-catechin], which “change in concentration after storage” value [1] is on record?
The value was “no significant changes”.

What about the “transport efficiency (percentage of initial apical concentration detected on basolateral side)” value (Caco-2 cell monolayers; from açai oil extracts) of the same compound?
The value was “approximately 0.1%”.

For `O=c1c(O)c(-c2ccc(O)c(O)c2)oc2cc(O)cc(O)c12` [Quercetin, quercetin], which “caspase-3 activation (maximal)” value (caspase-3) is on record?
Its value is “double”.

For `COc1cc(C(=O)O)ccc1O` [vanillic acid], which “change in concentration after storage” value [1] is on record?
The value was “no significant changes”.
